The values that follow come from patent publication US10550102B2, “Indane and indoline derivatives and the use thereof as soluble guanylate cyclase activators” (NOVARTIS AG, priority 2014, dated 2020).

The assay addresses soluble guanylate cyclase (human GUCYA3 and GUCYB3) overexpressed in CHO cells (Homo sapiens (Human), UniProt Q02108+Q02153). Kind of assay: CHO cellular assay (cGMP production, Cisbio cGMP HTRF kit). It counts as cell-based. The note with it: CHO GUCY clone 8E10, cGMP production, assay buffer with 1 mM IBMX and 20 uM ODQ, 1 h room temperature; minimum quantification limit 0.5 nM (listed 0.5 nM means ≤0.5 nM); read-out: EC50. The source says: Chinese hamster ovary (CHO) cells overexpressing soluble guanylate cyclase were generated to test the effect of sGC activators in a cellular context. Human cDNAs for GUCYA3 (RefSeq: NM_000856.3) and GUCYB3 (RefSeq: NM_000857.1) were amplified by PCR from a HUVEC (Human Umbilical Vein Endothelial Cells) cDNA library and cloned into mammalian expression vectors. CHO K1 cells (ATCC CCL-61) were transfected using Lipofectamine 2000 following manufacturer's instructions and stably expressing clones were identified by antibiotic selection. CHO GUCY clone 8E10 was used for subsequent experiments. Cells were seeded at a density of 3000 cells/well in white 384-well proxyplates (Perkin Elmer) and incubated overnight, then the medium was removed and cells were washed with assay buffer (HBSS, 0.1% BSA. 1 mM IBMX, 20 uM ODQ). sGC activators were serially diluted in DMSO, then diluted in assay buffer prior to adding to cells (10 ul/well, final DMSO concentration 0.5%). Cells were incubated with compounds for 1 h room temperature, then assayed for cGMP production using Cisbio cGMP HTRF kit (62GM2PEC) according to manufacturer's instructions. The EC50s are calculated based on the amount of cGMP interpolated from the standard curve, using a 4-parameter sigmoidal dose-response.
Background: TR-FRET usually uses a lanthanide donor and a delayed reading to cut background.

Some results are limits rather than exact numbers.

What is called EC50 is the concentration at which the effect is half-maximal.

soluble guanylate cyclase (human GUCYA3 and GUCYB3) overexpressed in CHO cells, sequence (Q02108 whole entry partner): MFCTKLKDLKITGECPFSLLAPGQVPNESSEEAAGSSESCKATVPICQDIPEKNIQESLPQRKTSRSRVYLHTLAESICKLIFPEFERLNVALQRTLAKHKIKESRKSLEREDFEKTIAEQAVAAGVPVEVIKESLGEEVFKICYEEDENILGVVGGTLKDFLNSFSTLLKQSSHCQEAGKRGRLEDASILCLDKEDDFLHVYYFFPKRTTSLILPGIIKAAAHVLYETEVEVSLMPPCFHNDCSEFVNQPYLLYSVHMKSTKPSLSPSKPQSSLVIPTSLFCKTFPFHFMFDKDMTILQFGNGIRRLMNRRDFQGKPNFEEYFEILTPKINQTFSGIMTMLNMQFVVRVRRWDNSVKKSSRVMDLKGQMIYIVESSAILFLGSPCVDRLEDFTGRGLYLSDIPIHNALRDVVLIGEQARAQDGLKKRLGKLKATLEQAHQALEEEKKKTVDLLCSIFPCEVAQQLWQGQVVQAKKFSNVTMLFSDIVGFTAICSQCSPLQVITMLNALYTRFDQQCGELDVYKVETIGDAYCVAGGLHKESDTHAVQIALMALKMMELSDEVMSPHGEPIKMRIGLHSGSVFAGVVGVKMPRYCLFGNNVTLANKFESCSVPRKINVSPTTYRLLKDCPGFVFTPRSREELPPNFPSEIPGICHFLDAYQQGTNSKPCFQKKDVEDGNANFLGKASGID
soluble guanylate cyclase (human GUCYA3 and GUCYB3) overexpressed in CHO cells, sequence (Q02153 whole entry): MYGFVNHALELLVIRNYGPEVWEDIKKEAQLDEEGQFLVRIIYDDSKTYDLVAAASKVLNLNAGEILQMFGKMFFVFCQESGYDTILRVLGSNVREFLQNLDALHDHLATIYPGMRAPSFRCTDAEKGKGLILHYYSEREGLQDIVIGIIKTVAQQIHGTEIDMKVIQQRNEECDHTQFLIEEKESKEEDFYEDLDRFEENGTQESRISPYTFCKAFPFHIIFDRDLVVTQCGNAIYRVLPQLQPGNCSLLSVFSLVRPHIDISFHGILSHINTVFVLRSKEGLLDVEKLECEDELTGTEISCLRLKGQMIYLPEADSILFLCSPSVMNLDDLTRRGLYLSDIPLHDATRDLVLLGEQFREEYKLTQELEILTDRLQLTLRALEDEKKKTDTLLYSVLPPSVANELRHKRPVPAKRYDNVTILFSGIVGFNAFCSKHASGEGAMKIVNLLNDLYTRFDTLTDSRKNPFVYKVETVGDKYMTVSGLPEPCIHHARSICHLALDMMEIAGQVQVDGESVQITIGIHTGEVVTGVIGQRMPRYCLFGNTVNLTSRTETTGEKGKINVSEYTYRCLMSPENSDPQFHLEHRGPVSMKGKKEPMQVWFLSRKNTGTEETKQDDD

`CCc1cc(CN2CC(C)c3cccc(-c4cccc(-n5ncc(C(=O)O)c5C)n4)c32)ccc1C1CCN(C(=O)C2CC2)CC1` (single isomer, unassigned; (+)) [(+)-20-3, (+)-1-(6-(1-(4-(1-(Cyclopropanecarbonyl)piperidin-4-yl)-3-ethylbenzyl)-3-methylindolin-7-yl)pyridin-2-yl)-5-methyl-1H-pyrazole-4-carboxylic acid]: the EC50 was at most 0.5 nM. As for `CCc1cc(NC2COc3cccc(-c4cccc(-n5ncc(C(=O)O)c5C(F)(F)F)n4)c32)ccc1C1CCN(C(=O)C2CC2)CC1` (single isomer, unassigned; (+)) [(+)-36-1, (+)-1-(6-(3-((4-(1-(Cyclopropanecarbonyl)piperidin-4-yl)-3-ethylphenyl)amino)-2,3-dihydrobenzofuran-4-yl)pyridin-2-yl)-5-(trifluoromethyl)-1H-pyrazole-4-carboxylic acid], the EC50 is at most 0.5 nM. Under `CCc1cc(NC2COc3cccc(-c4cccc(-n5ncc(C(=O)O)c5CC)n4)c32)ccc1C1CCN(C(=O)C2CC2)CC1` (single isomer, unassigned; (+)) [(+)-36-2, (+)-1-(6-(3-((4-(1-(Cyclopropanecarbonyl)piperidin-4-yl)-3-ethylphenyl)amino)-2,3-dihydrobenzofuran-4-yl)pyridin-2-yl)-5-ethyl-1H-pyrazole-4-carboxylic acid] stands at most 0.5 nM; under `Cc1cc(C2CCN(C(=O)C(C)C)CC2)ccc1NC1CCc2cccc(-c3cccc(-n4ncc(C(=O)O)c4C)n3)c21` (single isomer, unassigned; (+)) [(+)-46-1], at most 0.5 nM. Turning to `Cc1cc(C2CCN(C(=O)CC3CC3)CC2)ccc1NC1CCc2cccc(-c3cccc(-n4ncc(C(=O)O)c4C)n3)c21` (single isomer, unassigned; (+)) [(+)-46-3, (+)-1-(6-(3-((4-(1-(2-Cyclopropylacetyl)piperidin-4-yl)-2-methylphenyl)amino)-2,3-dihydro-1H-inden-4-yl)pyridin-2-yl)-5-methyl-1H-pyrazole-4-carboxylic acid], the EC50 is 1 nM. The result for `Cc1cc(C2CCN(C(=O)CC3CC3)CC2)c(F)cc1NC1CCc2cccc(-c3cccc(-n4ncc(C(=O)O)c4C)n3)c21` (single isomer, unassigned; (+)) [(+)-46-5, (+)-1-(6-(3-((4-(1-(2-Cyclopropylacetyl)piperidin-4-yl)-5-fluoro-2-methylphenyl)amino)-2,3-dihydro-1H-inden-4-yl)pyridin-2-yl)-5-methyl-1H-pyrazole-4-carboxylic acid] reads 1 nM; that for `CCc1cc(NC2CCc3cccc(-c4cccc(-n5ncc(C(=O)O)c5C)n4)c32)ccc1C1CCN(C(=O)C2CC2)CC1` (single isomer, unassigned; (+)) [(+)-46-6], at most 0.5 nM; that for `CCOC(=O)N1CCC(c2ccc(NC3CCc4cccc(-c5cccc(-n6ncc(C(=O)O)c6CC)n5)c43)cc2CC)CC1` (single isomer, unassigned; (+)) [(+)-52-1], at most 0.5 nM.

As for `CCc1cc(NC2CCc3cccc(-c4cccc(-n5ncc(C(=O)O)c5CC)n4)c32)ccc1C1CCN(C(=O)OC)CC1` (single isomer, unassigned; (+)) [(+)-52-2, (+)-5-Ethyl-1-(6-(3-((3-ethyl-4-(1-(methoxycarbonyl)piperidin-4-yl)phenyl)amino)-2,3-dihydro-1H-inden-4-yl)pyridin-2-yl)-1H-pyrazole-4-carboxylic acid], the half-maximal effective concentration (EC50) is at most 0.5 nM. Regarding `C=CCOC(=O)N1CCC(c2ccc(NC3CCc4cccc(-c5cccc(-n6ncc(C(=O)O)c6CC)n5)c43)cc2CC)CC1` (single isomer, unassigned; (+)) [(+)-52-3], the EC50 is at most 0.5 nM. Consider `CCc1cc(NC2CCc3cccc(-c4cccc(-n5ncc(C(=O)O)c5CC)n4)c32)ccc1C1CCN(C(=O)C2CC2)CC1` (single isomer, unassigned; (+)) [(+)-53-1, (+)-1-(6-(3-((4-(1-(cyclopropanecarbonyl)piperidin-4-yl)-3-ethylphenyl)amino)-2,3-dihydro-1H-inden-4-yl)pyridin-2-yl)-5-ethyl-1H-pyrazole-4-carboxylic acid], for which the EC50 is at most 0.5 nM.
